Laboratory results as given in PubChem BioAssay AID2060490 (Molecular Pharmacology Branch, DTP, NCI, 2025).
Values belong to the molecule of their own block, whether it stands above or below them.

System: 885512-296-R-J2-PDC complex spheroid viability
Test: Anticancer human tumor 885512-296-R-J2-PDC patient-derived breast carcinoma cell line growth inhibition [GQUAD]
Conditions: for IC50: curve of first compound; for viability, T/C: stronger effect = lower value
How it was run: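 Tumor cells were grown as complex spheroids with HUVEC endothelial cells and mesenchymal stem cells as stroma. G-quadruplex stabilizers were combined with targeted agents over half-log dilutions from near the clinical Cmax, or from 10 microM.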

[1] = second compound 0.0316 µM, first compound 0.0316 µM
[2] = second compound 0.0316 µM, first compound 0.1 µM
[3] = second compound 0.0316 µM, first compound 0.316 µM
[4] = second compound 0.0316 µM, first compound 1 µM
[5] = second compound 0.0316 µM, first compound 3.16 µM
[6] = second compound 0.0316 µM, first compound 10 µM
[7] = second compound 0.1 µM, first compound 0.0316 µM
[8] = second compound 0.1 µM, first compound 0.1 µM
[9] = second compound 0.1 µM, first compound 0.316 µM
[10] = second compound 0.1 µM, first compound 1 µM
[11] = second compound 0.1 µM, first compound 3.16 µM
[12] = second compound 0.1 µM, first compound 10 µM
[13] = second compound 0.316 µM, first compound 0.0316 µM
[14] = second compound 0.316 µM, first compound 0.1 µM
[15] = second compound 0.316 µM, first compound 0.316 µM
[16] = second compound 0.316 µM, first compound 1 µM
[17] = second compound 0.316 µM, first compound 3.16 µM
[18] = second compound 0.316 µM, first compound 10 µM
[19] = second compound 1 µM, first compound 0.0316 µM
[20] = second compound 1 µM, first compound 0.1 µM
[21] = second compound 1 µM, first compound 0.316 µM
[22] = second compound 1 µM, first compound 1 µM
[23] = second compound 1 µM, first compound 3.16 µM
[24] = second compound 1 µM, first compound 10 µM
[25] = second compound 3.16 µM, first compound 0.0316 µM
[26] = second compound 3.16 µM, first compound 0.1 µM
[27] = second compound 3.16 µM, first compound 0.316 µM
[28] = second compound 3.16 µM, first compound 1 µM
[29] = second compound 3.16 µM, first compound 3.16 µM
[30] = second compound 3.16 µM, first compound 10 µM
[31] = second compound 10 µM, first compound 0.0316 µM
[32] = second compound 10 µM, first compound 0.1 µM
[33] = second compound 10 µM, first compound 0.316 µM
[34] = second compound 10 µM, first compound 1 µM
[35] = second compound 10 µM, first compound 3.16 µM
[36] = second compound 10 µM, first compound 10 µM
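Also: spheroids exposed to the compounds for one week.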
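For viability, T/C in this document: percent of tumor spheroid viability relative to DMSO vehicle control wells.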

- IC50 (second compound 0.0316 µM): 2560 nM
- IC50 (second compound 0.1 µM): 551 nM
- IC50 (second compound 0.316 µM): < 31.6 nM
- IC50 (second compound 1 µM): < 31.6 nM
- IC50 (second compound 3.16 µM): < 31.6 nM
- IC50 (second compound 10 µM): < 31.6 nM
Compound: O=C(c1cc(Cc2n[nH]c(=O)c3ccccc23)ccc1F)N1CCN(C(=O)C2CC2)CC1 + Cc1cnc(CNC(=O)c2c(=O)c3ccc(N4CCCN(C)CC4)nc3n3c2sc2ccccc23)cn1
- viability, T/C [1]: 78.3%
- viability, T/C [2]: 69.4%
- viability, T/C [3]: 95.4%
- viability, T/C [4]: 83.6%
- viability, T/C [5]: 42.9%
- viability, T/C [6]: 23.8%
- viability, T/C [7]: 57.4%
- viability, T/C [8]: 55.5%
- viability, T/C [9]: 53.2%
- viability, T/C [10]: 46.8%
- viability, T/C [11]: 35.4%
- viability, T/C [12]: 22.5%
- viability, T/C [13]: 28.4%
- viability, T/C [14]: 26.7%
- viability, T/C [15]: 25.7%
- viability, T/C [16]: 17.6%
- viability, T/C [17]: 10.7%
- viability, T/C [18]: 15.5%
- viability, T/C [19]: 23.4%
- viability, T/C [20]: 22.8%
- viability, T/C [21]: 25.7%
- viability, T/C [22]: 21%
- viability, T/C [23]: 18%
- viability, T/C [24]: 18.4%
- viability, T/C [25]: 25%
- viability, T/C [26]: 26.6%
- viability, T/C [27]: 27%
- viability, T/C [28]: 24.5%
- viability, T/C [29]: 23%
- viability, T/C [30]: 8.85%
- viability, T/C [31]: 0.44%
- viability, T/C [32]: 0.21%
- viability, T/C [33]: 0.23%
- viability, T/C [34]: 0.19%
- viability, T/C [35]: 0.23%
- viability, T/C [36]: 0.19%

Compound: CCCS(=O)(=O)Nc1ccc(F)c(C(=O)c2c[nH]c3ncc(-c4ccc(Cl)cc4)cc23)c1F + Cc1[nH]c2ccc(F)cc2c1-c1nc2c3cccnc3c3ncccc3c2[nH]1
- IC50 (second compound 0.0316 µM): 393 nM
- IC50 (second compound 0.1 µM): 406 nM
- IC50 (second compound 0.316 µM): 183 nM
- IC50 (second compound 1 µM): 49.3 nM
- IC50 (second compound 3.16 µM): < 31.6 nM
- IC50 (second compound 10 µM): < 31.6 nM
- viability, T/C [1]: 112%
- viability, T/C [2]: 98.4%
- viability, T/C [3]: 60.7%
- viability, T/C [4]: 8.66%
- viability, T/C [5]: 3.89%
- viability, T/C [6]: 2.96%
- viability, T/C [7]: 121%
- viability, T/C [8]: 101%
- viability, T/C [9]: 64%
- viability, T/C [10]: 8.42%
- viability, T/C [11]: 2.95%
- viability, T/C [12]: 3.79%
- viability, T/C [13]: 94.4%
- viability, T/C [14]: 74%
- viability, T/C [15]: 28.7%
- viability, T/C [16]: 2.94%
- viability, T/C [17]: 2.46%
- viability, T/C [18]: 4.34%
- viability, T/C [19]: 68.3%
- viability, T/C [20]: 20.9%
- viability, T/C [21]: 4.4%
- viability, T/C [22]: 2.04%
- viability, T/C [23]: 2.3%
- viability, T/C [24]: 2.75%
- viability, T/C [25]: 4.29%
- viability, T/C [26]: 3.06%
- viability, T/C [27]: 1.78%
- viability, T/C [28]: 2%
- viability, T/C [29]: 2.26%
- viability, T/C [30]: 2.26%
- viability, T/C [31]: 1.32%
- viability, T/C [32]: 1.38%
- viability, T/C [33]: 1.47%
- viability, T/C [34]: 1.65%
- viability, T/C [35]: 2.7%
- viability, T/C [36]: 3.37%
